The target in data set [1] is T1, Pks13-TE (Mycobacterium tuberculosis, UniProt I6X8D2). Briefly: biochemical.
The subject of data set [2] is pks13-TetON +ATc (Pks13-hypermorph). The data set is classed as cell-based, Mycobacterium tuberculosis.
The test system of data set [3] is pks13-TetON -ATc (hypomorph). The data set is classed as cell-based, Mycobacterium tuberculosis.
The next data set has as its system WT H37Rv. Description: microbe, parasite or virus in culture. In kind it is cell-based, Mycobacterium tuberculosis. Particulars: for MIC: Mycobacterium tuberculosis, H37RV.
Data set [4] addresses T1, Pks13-TE. Briefly: biochemical. The data set is classed as binding.
Data set [5] can be described thus: Metabolic stability in mouse liver microsomes (MLMs).
Data set [6] in a line: in vitro. Particulars: mouse, plasma.
Another data set can be described thus: in vivo. The settings on record: female, CD-1, mouse.
The nature of data set [7]: in vitro. Particulars: mouse, microsomes.
The conditions of data set [8]: in vivo, po.
In another data set the test system is Mtb H37Rv. The arrangement: species or system Mycobacterium tuberculosis. The settings on record: in vivo, po.
Data set [9] is described as follows: Mouse pharmacokinetics studies. The settings on record: female, CD-1, mouse, plasma.
The nature of data set [10]: in vitro. Particulars: human, plasma.
The subject of another data set is Mtb. Particulars: in vivo; cited from earlier work.
Setting [11] is: read-out: MIC (whole cell activity).

Values after ≈ are worked out from the molar mass of the structure shown. Read-outs that look alike come from different tables or passages of the source.

Broadly, the IC50 is the midpoint of a concentration-inhibition curve. For orientation: half-life means the time needed for the level to fall by half in the phase considered. A high value points to slow decline. A word on the fraction unbound: it is the share of the substance not bound to proteins or other matrix. A higher fraction unbound goes with weak binding. As usually defined, the Vd is the apparent volume that relates the amount in the body to the concentration in plasma or blood. For orientation: bioavailability means dose-corrected exposure relative to a reference, in per cent. Lower therefore signals little systemic uptake. Broadly, the clearance is the rate of elimination divided by the concentration. Higher therefore signals efficient removal. By microsomal CLint is commonly meant the capacity of the preparation to metabolise the compound, expressed as a volume cleared per time. The term AUC(0-t) denotes the area under the concentration-time curve up to a stated or last time point. Read a high AUC(0-t) as high exposure.

T1 sequence (I6X8D2 1451-1733 limits assumed): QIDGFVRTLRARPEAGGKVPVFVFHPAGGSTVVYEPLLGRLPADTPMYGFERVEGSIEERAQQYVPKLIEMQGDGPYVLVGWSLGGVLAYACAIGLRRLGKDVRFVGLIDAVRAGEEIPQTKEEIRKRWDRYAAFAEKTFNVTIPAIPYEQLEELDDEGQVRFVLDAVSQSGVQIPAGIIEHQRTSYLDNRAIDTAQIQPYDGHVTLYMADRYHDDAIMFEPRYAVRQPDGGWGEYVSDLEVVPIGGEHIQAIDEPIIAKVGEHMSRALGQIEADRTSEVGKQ

As to `COCC1(CN(C)C(=O)c2ccc(CCn3cc(-c4ccc(-c5cc(OC)ccc5OC)nc4)nn3)cc2)CC1` [X20403], the 50% inhibitory concentration (IC50) at Pks13-TE [1] worked out at 57 nM; on Pks13-TE [4] (IC50 in the TAMRA binding assay), 0.5 µM. In data set [2], the “Hypermorph MIC fold shift (+ATc/WT)” value stood at 2.3 fold. For the same molecule, in data set [3], the “Hypomorph MIC fold shift (WT/-ATc)” value worked out at 0.88 fold. The MIC with WT H37Rv (read-out: MIC (Mtb inhibition)) and in the data set with WT H37Rv (read-out: WT H37Rv MIC (uM)) was 0.05 µM (≈ 0.0271 µg/mL) in each case.

Regarding `Cc1cc(C(=O)NCc2ccccc2)nc(N2CCC(C(=O)N3CCN(C(=O)c4cnc5c(C)cccc5c4)CC3)CC2)n1` [X20377], the “Hypermorph MIC fold shift (+ATc/WT)” value in data set [2] is reported as 2.6 fold. For the same molecule, the “Hypomorph MIC fold shift (WT/-ATc)” value in data set [3] amounted to 3.5 fold. The MIC with WT H37Rv (read-out: MIC (Mtb inhibition)) and in the data set with WT H37Rv (read-out: WT H37Rv MIC (uM)) was 0.21 µM (≈ 0.124 µg/mL) each time. On Pks13-TE [4] (IC50 (uM)), this molecule registered a half-inhibitory concentration (IC50) of 0.85 µM.

As to `Cc1cc(C(=O)NCc2ccccc2)nc(N2CCC(CN3CCN(C(=O)c4cnc5c(C)cccc5c4)CC3)CC2)n1` [X21352], in data set [2], the “Hypermorph MIC fold shift (+ATc/WT)” value came to 6.1 fold. Further, in [3], the “Hypomorph MIC fold shift (WT/-ATc)” value amounted to 1.7 fold. Further, in the data set with WT H37Rv (read-out: WT H37Rv MIC (uM)), the MIC is 5.2 µM (≈ 3 µg/mL). Also, at Pks13-TE [4] (IC50 (uM)), the concentration for half-maximal inhibition (IC50) was found to be 0.46 µM.

`COc1ccc2[nH]c(C(=O)N3CCN(C(=O)C4CCN(c5nc(C)cc(C(=O)NCc6ccccc6)n5)CC4)CC3)cc2c1OC` [X20419]: the “Hypermorph MIC fold shift (+ATc/WT)” value in data set [2] came to 2.5 fold. Also, the “Hypomorph MIC fold shift (WT/-ATc)” value in [3] is recorded as 1.8 fold. Further, the MIC in the data set on WT H37Rv (read-out: MIC (Mtb inhibition)) worked out at 0.04 µM (≈ 0.025 µg/mL); in the data set with WT H37Rv (read-out: WT H37Rv MIC (uM)), 0.044 µM (≈ 0.0275 µg/mL). The “fold improvement in enzyme inhibition” value at Pks13-TE [4] is 30 fold. This molecule also had a half-maximal inhibitory concentration (IC50) against Pks13-TE [4] (IC50 (uM)) of 0.48 µM.

`CNC(=O)c1cc(C(C)C)nc(N2CCC(C(=O)N3CCN(C(=O)c4ccc(-n5nc(C)cc5C)nc4)CC3)CC2)n1` [X21426]: the “Hypermorph MIC fold shift (+ATc/WT)” value in [2] is reported as 4.8 fold. Besides, the “Hypomorph MIC fold shift (WT/-ATc)” value in [3] is given as 1.5 fold. Besides, the MIC in the data set with WT H37Rv (read-out: WT H37Rv MIC) is 13 µM (≈ 7.46 µg/mL). Besides, at Pks13-TE [4] (read-out: IC50), the IC50 stood at 0.62 µM.

`COc1ccc(OC)c(-c2ccc(-c3cn(CCc4ccc5c(cnn5C)c4)nn3)cn2)c1` [X21543]: the “Hypermorph MIC fold shift (+ATc/WT)” value in [2] is given as 1.7 fold. For the same molecule, the “Hypomorph MIC fold shift (WT/-ATc)” value in data set [3] is listed as 3.4 fold. Also, the MIC with WT H37Rv (read-out: WT H37Rv MIC) was 0.35 µM (≈ 0.154 µg/mL). The IC50 at Pks13-TE [4] (read-out: IC50) was found to be 0.49 µM.

Consider `CC(=O)N1CCN(C(=O)C2CCN(c3nc(C)cc(C(=O)NCc4ccccc4)n3)CC2)CC1` [X13045], for which the IC50 amounted to 15000 nM at Pks13-TE [1] and 15.1 µM on Pks13-TE [4] (IC50 (uM)). Besides, the “Hypomorph MIC fold shift (WT/-ATc)” value in data set [3] is 1.5 fold. Moreover, the MIC in the data set on WT H37Rv (read-out: MIC (Mtb inhibition)), in the data set with WT H37Rv (setting [11]) and in the data set on WT H37Rv (read-out: WT H37Rv MIC (uM)) was 390 µM (≈ 181 µg/mL) each time.

In the case of `COc1ccc(OC)c(-c2ccc(-c3cn(CCc4ccncc4)nn3)cn2)c1` [X21498], the “Hypermorph MIC fold shift (+ATc/WT)” value in data set [2] is 2.7 fold. Further, in data set [3], the “Hypomorph MIC fold shift (WT/-ATc)” value is on record as 1.5 fold. Moreover, the “WT H37Rv MIC” value with WT H37Rv amounted to 0.26 µM. Besides, on Pks13-TE [4] (read-out: IC50), the IC50 amounted to 0.37 µM.

Regarding `COc1ccc(OC)c(-c2ccc(-c3cn(CCc4ccc(C(=O)N(C)C)cc4)nn3)cn2)c1` [X20404], the half-life at 5 μM in [5] is 26.8 min. Besides, the figures for the fraction unbound at 4 h, 10000 ng/mL in “in vitro [6]” (mouse PPB (%)), in the data set “in vitro [6]” (plasma protein binding) and in the data set “in vitro [10]” were 0.023, 0.02 and 0.044, respectively. For the same molecule, the “Hypermorph MIC fold shift (+ATc/WT)” value in data set [2] was 2.3 fold. Besides, in the data set “in vivo”, the Vd turned out to be 0.3 L/kg. The same molecule displayed a bioavailability in “in vivo” of 8%. Besides, the clearance in the data set “in vivo” worked out at 6.2 mL/min/kg. In addition, the “Hypomorph MIC fold shift (WT/-ATc)” value in data set [3] was 2.9 fold. In the data set “in vitro [7]”, this molecule came in with a microsomal CLint at 5 μM of 26.2 µL/min/mg. In addition, the “fold higher maximum concentration in blood compared to three other compounds” value in data set [8] (female, CD-1, mouse, 25 mg/kg) was ~10 fold. In addition, the “plasma concentrations relative to MIC” value in [8] (mouse, 200 mg/kg) is given as “above the MIC”. Moreover, the “reduction of the lung CFU compared to untreated control” value in the data set with Mtb H37Rv (100 mg/kg) is on record as “approximately 0.4 log10”; in the data set on Mtb H37Rv (200 mg/kg), 0.8 log10. This molecule showed a half-life in data set [9] (intravenous, 5 mg/kg) of 36 min. Further, the area under the curve AUC(0-t) was found to be 13500 ng·h/mL in [9] (iv, 5 mg/kg); 3700 ng·h/mL in data set [9] (po, 25 mg/kg); 14200 ng·h/mL in data set [9] (po, 50 mg/kg); 33300 ng·h/mL in data set [9] (po, 100 mg/kg); 98100 ng·h/mL in [9] (po, 200 mg/kg). The MIC in the data set with WT H37Rv (read-out: MIC (Mtb inhibition)), in the data set with WT H37Rv (setting [11]) and with WT H37Rv (read-out: WT H37Rv MIC (uM)) was 0.25 µM (≈ 0.114 µg/mL) each time. The figures for the IC50 on Pks13-TE [4] (IC50 (enzyme inhibition)) and against Pks13-TE [4] (IC50 (uM)) were 0.4 µM and 0.43 µM, respectively.

For the molecule `Cc1cc(C(=O)NCc2ccccc2)nc(N2CCC(C(=O)N3CCN(C(=O)c4ccc5nc(C)ccc5c4)CC3)CC2)n1` [X22275], the “Hypermorph MIC fold shift (+ATc/WT)” value in data set [2] was found to be 2.7 fold. The “Hypomorph MIC fold shift (WT/-ATc)” value in [3] turned out to be 2.3 fold. In addition, the MIC in the data set on WT H37Rv (read-out: WT H37Rv MIC) was found to be 0.048 µM (≈ 0.0284 µg/mL). The IC50 at Pks13-TE [4] (read-out: IC50) worked out at 0.62 µM.

Consider `NNC(=O)c1ccncc1` [INH, Isoniazid, reference compound], for which the “reduction in CFU (lung)” value in the data set with Mtb H37Rv (25 mg/kg) was ~1.5 log10. Besides, the “reduction of the burden” value with Mtb is on record as 1 log10.

The record behind these values is PMC11091879, “Inhibitors of the Thioesterase Activity of Mycobacterium tuberculosis Pks13 Discovered Using DNA-Encoded Chemical Library Screening” (ACS Infectious Diseases, 2024).
